These results are taken from patent US11578055B2, “Triazacyclododecansulfonamide (“TCD”)-based protein secretion inhibitors” (KEZAR LIFE SCIENCES, priority 2018, dated 2023).

pEC50, pIC50: −log10 of the molar value.

One may read the pEC50 as the negative decadic logarithm of the EC50, by convention in mol/L.

The nature of data set [1]: In Vitro Microsome Stability Assay (human). It is filed as in vitro ADME. Conditions: human liver microsomes, 30 min w/ NADPH. In outline:
(§1)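 The value reported is the percentage of parent left after 30 min, calculated from analyte/IS peak-area ratios relative to time zero by LC-MS/MS. Incubations ran at 37° C in 0.1 M potassium phosphate with NADPH and microsomes (stock 20 mg/mL), with compound added from a 0.25 mM DMSO stock. Acetonitrile containing IS stopped the reactions.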
(Microsomes from liver hold many membrane-bound enzymes, among them those of drug oxidation.)

Data set [2] deals with full length TNFα (amino acids 1-233) fused to Gaussia Luciferase. As to the kind of experiment: Dox Induced TNFα-FL-Gluc Assay. It counts as cell-based. Conditions: 24 hr, Dox inducible, 293FRT/TO cells; read-out: 24 hr Dox Inducible TNFaFLGluc 293FRT/TO: Mean IC50. In short, it runs like this:
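Stable Flp-In 293 T-REx line expressing doxycycline-inducible full-length TNFα fused to Gaussia luciferase; cells plated the day before, then treated with compound dilutions in doxycycline-containing medium at 37° C, 5% CO2. Unspecified stereocentres mean stereoisomer mixtures were tested.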

Data set [3] deals with full length IL-2 (amino acids 1-153) fused to Gaussia Luciferase. Nature of the data set: Dox Induced IL2-FL-Gluc Assay. It counts as cell-based. Conditions: 24 hr, Dox inducible, 293FRT/TO cells; read-out: 24 hr Dox Inducible IL2FLGluc 293FRT/TO: Mean IC50. In outline:
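Flp-In 293 T-REx stable line expressing full-length IL-2 (aa 1-153) with C-terminal Gaussia luciferase fusion under doxycycline-inducible control. Cells plated the day before; compound dilutions added in DMSO/media containing doxycycline, incubated at 37° C, 5% CO2.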

Data set [4] in a line: In Vitro Microsome Stability Assay (monkey). It is filed as in vitro ADME. The following applies: monkey liver microsomes, 30 min w/ NADPH. In outline: as §1
The test system of data set [5] is PD1 signal sequence plus 10 amino acids fused to Gaussia Luciferase (PD1-ss+10aa/Gaussia Luciferase). As to the kind of experiment: Dox Induced PD1-ss-Gluc Assay. It counts as cell-based. The following applies: 24 hr, Dox inducible, 293FRT/TO cells; read-out: 24 hr Dox Inducible PD1ssGluc 293FRT/TO: Mean IC50. In outline: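 Stable Flp-In 293 T-REx line expressing the fusion under tetracycline-inducible control, plated the day before assay. Compound dilutions added with doxycycline and incubated at 37 °C, 5% CO2; unspecified stereocentres mean data refer to stereoisomer mixtures.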

The test system of data set [6] is multiple myeloma cell line U266B1. As to the kind of experiment: U266 Cell Viability Assay. The following applies: Homo sapiens, U-266; 48 hr, U266, Celltiter-Glo. It counts as cell-based, human. In outline:
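U266B1 myeloma cells in RPMI 1640 with 10% FBS were treated with compound dilutions for 48 h at 37° C, 5% CO2. Viability was read as CellTiter-Glo luminescence. Data for structures drawn without stereochemistry refer to stereoisomer mixtures.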
(In general: ATP-based viability assays read luminescence as a measure of living cells.)

The test system of data set [7] is multiple myeloma cell line NCl-H929. Nature of the data set: H929 Cell Viability Assay. It counts as cell-based, human. Conditions: Homo sapiens, NCI-H929, 48 h, H929, Celltiter-Glo. In short, it runs like this:
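NCI-H929 myeloma cells in RPMI 1640 with 10% FBS were treated with compound dilutions for 48 h at 37 °C, and viability was then read by CellTiter-Glo luminescence. Compounds drawn without stereochemistry were tested as stereoisomer mixtures.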

Data set [8] can be described thus: In Vitro Microsome Stability Assay (rat). It counts as in vitro ADME. Conditions: rat liver microsomes, 30 min w/ NADPH. In short, it runs like this: as §1
The nature of data set [9]: In Vitro Microsome Stability Assay (mouse). It is filed as in vitro ADME. The following applies: mouse liver microsomes, 30 min w/ NADPH. In short, it runs like this: as §1

Regarding `C[C@H]1CN(S(=O)(=O)c2ccc(N(C)C)cc2)CCCN(CC2CC(F)(F)C2)CCCN(S(=O)(=O)N2CCc3cc(Cl)ccc3C2)C1` [A169, 4-{[(3S)-5-[(6-chloro-1,2,3,4-tetrahydroisoquinolin-2-yl)sulfonyl]-9-[(3,3-difluorocyclobutyl)methyl]-3-methyl-1,5,9-triazacyclododecan-1-yl]sulfonyl}-N,N-dimethylaniline], the “Liver Microsome Stability-% Left after 30 min w/ NADPH (%) Human” value (shortened to “Liver Microsome Stability-% Left … (%) Human”) in [1] stood at 34.7%. The pIC50 was 5.98 in data set [2], 6.72 in [3] and 7.09 in data set [5]. For the same compound, the “Liver Microsome Stability-% Left after 30 min w/ NADPH (%) Monkey” value (“Liver Microsome Stability-% Left … (%) Monkey” below) in data set [4] came out at 4.23%. The pEC50 in data set [6] was less than 4.60; in data set [7], 5.49. The “Liver Microsome Stability-% Left after 30 min w/ NADPH (%) Rat” value (shortened to “Liver Microsome Stability-% Left … (%) Rat”) in [8] is on record as 13.1%. Besides, the “Liver Microsome Stability-% Left after 30 min w/ NADPH (%) Mouse” value (from here on “Liver Microsome Stability-% Left … (%) Mouse”) in data set [9] is 22.5%.
Consider `CC1c2ccccc2CCN1S(=O)(=O)N1CCCN(CC2CCCCC2)CCCN(S(=O)(=O)c2ccc(N(C)C)cc2)C[C@H](C)C1` (stereo partly drawn) [A170, 4-{[(3S)-9-(cyclohexylmethyl)-3-methyl-5-[(1-methyl-1,2,3,4-tetrahydroisoquinolin-2-yl]sulfonyl]-1,5,9-triazacyclododecan-1-yl]sulfonyl}-N,N-dimethylaniline], for which the “Liver Microsome Stability-% Left … (%) Human” value in data set [1] is given as 7.2%. In addition, the pIC50 is 6.10 in data set [2], 6.87 in data set [3] and 7.25 in data set [5]. In addition, in data set [4], the “Liver Microsome Stability-% Left … (%) Monkey” value was found to be 1.37%. Further, the pEC50 in data set [6] was less than 4.60; in data set [7] it was 5.75. Besides, the “Liver Microsome Stability-% Left … (%) Rat” value in [8] is on record as 10.8%. In data set [9], the “Liver Microsome Stability-% Left … (%) Mouse” value came to 3.65%.
Turning to `C[C@H]1CN(S(=O)(=O)Cc2ccccc2)CCCN(CC2CCCCC2)CCCN(S(=O)(=O)N2CCc3cc(Cl)ccc3C2)C1` [A171, 6-chloro-2-{[(3S)-9-(cyclohexylmethyl)-3-methyl-5-phenylmethanesulfonyl-1,5,9-triazacyclododecan-1-yl]sulfonyl}-1,2,3,4-tetrahydroisoquinoline], the “Liver Microsome Stability-% Left … (%) Human” value in data set [1] was determined as 0.60%. Besides, the pIC50 in [2], in data set [3] and in data set [5] was less than 4.60 in each case. Moreover, the “Liver Microsome Stability-% Left … (%) Monkey” value in data set [4] turned out to be 0.26%. The pEC50 in [6] and in data set [7] was less than 4.60 each time. Also, in data set [8], the “Liver Microsome Stability-% Left … (%) Rat” value is on record as 0.90%. In addition, the “Liver Microsome Stability-% Left … (%) Mouse” value in data set [9] was 0.91%.
Consider `CC1Cc2ccccc2CN1S(=O)(=O)N1CCCN(CC2CCCCC2)CCCN(S(=O)(=O)c2ccc(N(C)C)cc2)C[C@H](C)C1` (stereo partly drawn) [A172, 4-{[(3S)-9-(cyclohexylmethyl)-3-methyl-5-[(3-methyl-1,2,3,4-tetrahydroisoquinolin-2-yl]sulfonyl]-1,5,9-triazacyclododecan-1-yl]sulfonyl}-N,N-dimethylaniline], for which, in data set [1], the “Liver Microsome Stability-% Left … (%) Human” value turned out to be 3.46%. Further, the pIC50 in data set [2] is 6.36; in data set [3] it was 7.18; in [5], 7.53. Moreover, in data set [4], the “Liver Microsome Stability-% Left … (%) Monkey” value was determined as 2.63%. Besides, the pEC50 in data set [6] is less than 4.60; in data set [7], 5.76. For the same compound, the “Liver Microsome Stability-% Left … (%) Rat” value in data set [8] was 2.23%. In addition, in data set [9], the “Liver Microsome Stability-% Left … (%) Mouse” value was 3.65%.
On to `C[C@H]1CN(S(=O)(=O)c2ccc(N(C)C)cc2)CCCN(CC2CCCCC2)CCCN(S(=O)(=O)N2CCN(c3ccccc3OC(F)(F)F)CC2)C1` [A173, 4-{[(3S)-9-(cyclohexylmethyl)-3-methyl-5-({4-[2-(trifluoromethoxy)phenyl]piperazin-1-yl}sulfonyl)-1,5,9-triazacyclododecan-1-yl]sulfonyl}-N,N-dimethylaniline], for which the “Liver Microsome Stability-% Left … (%) Human” value in data set [1] was found to be 56.1%. In addition, the pIC50 in data set [2] is 5.25; in [3] it was 6.61; in [5], 7.10. Besides, in data set [4], the “Liver Microsome Stability-% Left … (%) Monkey” value was found to be 55.9%. The pEC50 in data set [6] and in data set [7] was less than 4.60 in each case. Besides, in data set [8], the “Liver Microsome Stability-% Left … (%) Rat” value came to 53.8%. Also, in data set [9], the “Liver Microsome Stability-% Left … (%) Mouse” value worked out at 49.2%.
For the compound `COc1c(N2CCN(S(=O)(=O)N3CCCN(CC4CCCCC4)CCCN(S(=O)(=O)c4ccc(N(C)C)cc4)C[C@H](C)C3)CC2)ccc(F)c1F` [A174, 4-{[(3S)-9-(cyclohexylmethyl)-5-{[4-(3,4-difluoro-2-methoxyphenyl)piperazin-1-yl]sulfonyl}-3-methyl-1,5,9-triazacyclododecan-1-yl]sulfonyl}-N,N-dimethylaniline], in data set [1], the “Liver Microsome Stability-% Left … (%) Human” value turned out to be 41.7%. Moreover, the pIC50 was 6.25 in data set [2], 7.27 in [3] and 7.80 in data set [5]. In addition, in [4], the “Liver Microsome Stability-% Left … (%) Monkey” value turned out to be 28.4%. In addition, the negative-log EC50 (pEC50) in [6] was less than 4.60; in data set [7] it was 5.73. In addition, the “Liver Microsome Stability-% Left … (%) Rat” value in data set [8] is 44.4%. Moreover, in data set [9], the “Liver Microsome Stability-% Left … (%) Mouse” value was found to be 36.9%.
As to `COc1c(F)cccc1N1CCN(S(=O)(=O)N2CCCN(CC3CCCCC3)CCCN(S(=O)(=O)c3ccc(N(C)C)cc3)C[C@H](C)C2)CC1` [A175, 4-{[(3S)-9-(cyclohexylmethyl)-5-{[4-(3-fluoro-2-methoxyphenyl)piperazin-1-yl]sulfonyl}-3-methyl-1,5,9-triazacyclododecan-1-yl]sulfonyl}-N,N-dimethylaniline], the “Liver Microsome Stability-% Left … (%) Human” value in [1] worked out at 4.26%. For the same compound, the pIC50 is 6.41 in data set [2], 7.39 in [3] and 8.03 in [5]. The “Liver Microsome Stability-% Left … (%) Monkey” value in [4] was found to be 2.27%. Moreover, the results for the negative logarithm of the EC50 (pEC50) in data set [6] and in data set [7] were less than 4.60 and 5.84, respectively. Also, the “Liver Microsome Stability-% Left … (%) Rat” value in [8] is recorded as 6.28%. For the same compound, the “Liver Microsome Stability-% Left … (%) Mouse” value in data set [9] amounted to 6.73%.
For `COc1cc(F)ccc1C1CN(S(=O)(=O)N2CCCN(CC3CCCCC3)CCCN(S(=O)(=O)c3ccc(N(C)C)cc3)C[C@H](C)C2)C1` [A178, 4-{[(3S)-9-(cyclohexylmethyl)-5-{[3-(4-fluoro-2-methoxyphenyl)azetidin-1-yl]sulfonyl}-3-methyl-1,5,9-triazacyclododecan-1-yl]sulfonyl}-N,N-dimethylaniline], in data set [1], the “Liver Microsome Stability-% Left … (%) Human” value was 24.0%. The pIC50 was 5.32 in data set [2], 6.59 in data set [3] and 6.87 in [5]. Also, in [4], the “Liver Microsome Stability-% Left … (%) Monkey” value worked out at 25.8%. Moreover, the pEC50 in [6] and in data set [7] was less than 4.60 in each case. The “Liver Microsome Stability-% Left … (%) Rat” value in data set [8] turned out to be 29.2%. Besides, the “Liver Microsome Stability-% Left … (%) Mouse” value in data set [9] stood at 22.8%.
As for `C[C@H]1CN(S(=O)(=O)c2ccc3oncc3c2)CCCN(CC2CCCCC2)CCCN(S(=O)(=O)N2CCc3cc(Cl)ccc3C2)C1` [A180], the “Liver Microsome Stability-% Left … (%) Human” value in [1] is recorded as 0.80%. Also, the pIC50 was less than 4.60 in [2], 4.86 in data set [3] and 5.56 in [5]. For the same compound, the “Liver Microsome Stability-% Left … (%) Monkey” value in data set [4] came to 0.08%. Moreover, the negative logarithm of the EC50 (pEC50) in data set [6] is less than 4.60; in [7] it was 4.70. For the same compound, in [8], the “Liver Microsome Stability-% Left … (%) Rat” value worked out at 1.97%. Moreover, the “Liver Microsome Stability-% Left … (%) Mouse” value in data set [9] is reported as 0.44%.
